# Reference: patent US9981916B2 (Genentech, Inc., priority 2013, dated 2018)
# Target: T1, RORc ligand binding domain (Homo sapiens, UniProt P51449)
# T1 construct: host or cells: E. coli
# T1 sequence (P51449 269-508 limits assumed): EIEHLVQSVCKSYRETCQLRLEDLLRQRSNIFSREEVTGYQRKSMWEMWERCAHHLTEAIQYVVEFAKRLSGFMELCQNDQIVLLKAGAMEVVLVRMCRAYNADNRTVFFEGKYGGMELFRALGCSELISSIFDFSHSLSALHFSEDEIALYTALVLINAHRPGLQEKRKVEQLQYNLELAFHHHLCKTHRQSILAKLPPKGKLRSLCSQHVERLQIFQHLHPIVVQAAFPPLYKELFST
# Experiment: In vitro RORc ligand binding assay (25-[3H]hydroxycholesterol displacement, filter binding)
# Conditions: 6 nM 25-[3H]hydroxycholesterol, 0.6 ug/mL RORc receptor, 3 h at 25° C.
# Protocol: Example 17: In Vitro RORc Ligand Binding Assay
# This assay was used to determine a compound's potency in inhibiting activity of RORc by determining, Kiapp, IC50, or percent inhibition values.
# On day of the assay, 100 uL of 0.05% CHAPS (in deionized H2O) was added to all wells of the GFB Unifilter plate and allowed soak for 1 h. A wash buffer of 50 mM HEPES (pH 7.4), 150 mM NaCl, and 5 mM MgCl2 was prepared to wash the filter plate. To prepare an assay buffer, BSA was added to the wash buffer to reach 0.01% and DTT was added to reach 1 mM.
# For IC50 mode, 10 mM compound stocks were serially diluted in DMSO with DMSO to give 20× required final concentration in DMSO (15 uL compound+30 uL DMSO). The 20× compound stocks were diluted in DMSO with Assay Buffer 4-fold to reach 5× the final test concentration in 25% DMSO (10 uL compound+30 uL Assay Buffer). Solutions were mixed by aspiration several times with a pipette set on 50 uL volume. For the assay, 10 uL of 5× compound stock solutions in 25% DMSO were added to the assay plate in duplicate.
# For two point screening, 10 mM stock compound solutions were diluted in DMSO to obtain 200 uM (20× the high test concentration) and then diluted 10-fold further to reach 20 uM (20× the low test concentration). The 20× stocks were diluted 4-fold with Assay Buffer (10 uL compound+30 uL Assay Buffer) to reach 5× the test concentrations (50 uM and 5 uM) and 10 uL were added to two assay plates for the duplicate wells. With each concentration tested on 2 plates, each set of 80 compounds used 4 assay plates (1 uM and 10 uM, with n=2).
# 25-hydroxycholesterol (1 uM) was used to determine the level of NSB signal is prepared in DMSO as for compounds above, then diluted in Assay Buffer to give a final concentration of 5 uM. For 25-hydroxycholesterol in 25% DMSO/75% Assay Buffer; 10 uL per well was used for NSB samples. Wells for Total Binding and No Receptor sample determination contained 10 uL of 25% DMSO/75% Assay Buffer per well.
# 25-[^3H]hydroxycholesterol was diluted in Assay Buffer to obtain 15 nM and vortex to mix. Add 20 uL to all wells to reach 6 nM final concentration in the assay.
# Stock receptor solution was diluted in assay buffer to obtain 1.5 ug/mL in Assay Buffer. 20 uL was added to all wells. For No Receptor samples, 20 uL Assay Buffer was substituted for receptor solution.
# Assay plates were 96-well polypropylene V-bottom plates. 10 uL of 5× compound in 25% DMSO/75% Assay Buffer was added to Test wells. 10 uL of 25% DMSO/75% Assay Buffer was added to Total Binding or No Receptor wells. 10 uL of 5 uM 25-hydroxycholesterol in 25% DMSO/75% Assay Buffer was added to NSB wells. 20 uL of 15 nM 25-[^3H]hydroxycholesterol prepared in Assay Buffer was added to all wells. 20 uL of 1.5 ug/mL RORc receptor was added to wells (or […] Assay Buffer to No R wells). Following addition to the wells, the plates were incubated 3 h at 25° C.
# Using a Packard Filtermate Harvester, the filter plate were washed 4 times following transfer of the incubated samples. Plates were dry-filtered completely (2 h at 50° C. or overnight at room temperature). 50 uL Microscint 0 was added to all wells and read on Topcount protocol Inverted.
# Final concentrations were as follows: 50 mM HEPES buffer (pH 7.4); 150 mM NaCl; 1 mM DTT; 5 mM MgCl2; 0.01% BSA; 5% DMSO; 0.6 ug/mL RORc receptor; 6 nM 25-[^3H]hydroxycholesterol. For NSB wells, 1 uM 25-hydroxycholesterol was also present.
row,Structure (SMILES),IC50
1,"CC1(C)[C@H]2CC[C@]1(c1ncco1)c1nnc(-c3c(F)cccc3F)cc12 [Example 102, (5R,8R)-3-(2,6-difluorophenyl)-9,9-dimethyl-8-(1,3-oxazol-2-yl)-5,6,7,8-tetrahydro-5,8-methanocinnoline]",17 nM
2,"CC1(C)[C@@H]2CC[C@@]1(C(=O)N1CCCC1CO)c1nnc(-c3c(F)cccc3F)cc12 (stereo in doubt) [Example 215, ((5S,8S)-3-(2,6-difluorophenyl)-9,9-dimethyl-5,6,7,8-tetrahydro-5,8-methanocinnolin-8-yl) ((R)-2-(hydroxymethyl)pyrrolidin-1-yl)methanone]",1130 nM
3,"CC1(C)[C@H]2CC[C@]1(COCc1ccccc1)c1nnc(Oc3c(F)cccc3F)cc12 [Example 338, (5R,8R)-8-((benzyloxy)methyl)-3-(2,6-difluorophenoxy)-9,9-dimethyl-5,6,7,8-tetrahydro-5,8-methanocinnoline]",66 nM
4,"Cc1nnc(N(CC(F)F)C[C@@]23CC[C@@H](c4cc(-c5c(F)cccc5F)nnc42)C3(C)C)o1 [Example 166, N-(2,2-difluoroethyl)-N-(((5R,8S)-3-(2,6-difluorophenyl)-9,9-dimethyl-5,6,7,8-tetrahydro-5,8-methanocinnolin-8-yl)methyl)-5-methyl-1,3,4-oxadiazol-2-amine]",9 nM
5,"CC1(C)[C@H]2CC[C@]1(CNCCO)c1nnc(-c3c(F)cccc3F)cc12 [Example 297, 2-((((5R,8S)-3-(2,6-difluorophenyl)-9,9-dimethyl-5,6,7,8-tetrahydro-5,8-methanocinnolin-8-yl)methyl)amino)ethanol]",2420 nM
6,"CC1(C)[C@@H]2CC[C@@]1(C(=O)N1CC3COCC3C1)c1nnc(-c3c(F)cccc3F)cc12 (stereo partly drawn) [Example 217, ((5S,8S)-3-(2,6-difluorophenyl)-9,9-dimethyl-5,6,7,8-tetrahydro-5,8-methanocinnolin-8-yl)(tetrahydro-1H-furo[3,4-c]pyrrol-5(3H)-yl)methanone]",144 nM
7,"CC1(C)[C@H]2C=C[C@]1(C)c1nnc(-c3c(F)cccc3F)cc12 [Example 126, (5R,8S)-3-(2,6-difluorophenyl)-8,9,9-trimethyl-5,8-dihydro-5,8-methanocinnoline]",340 nM
8,"COCCN(C[C@@]12CC[C@@H](c3cc(-c4c(F)cccc4F)nnc31)C2(C)C)c1nnc(C)o1 [Example 149, N-(((5R,8S)-3-(2,6-difluorophenyl)-9,9-dimethyl-5,6,7,8-tetrahydro-5,8-methanocinnolin-8-yl)methyl)-N-(2-methoxyethyl)-5-methyl-1,3,4-oxadiazol-2-amine]",54 nM
9,"CC(=O)N(CCO)C[C@@]12CC[C@@H](c3cc(-c4c(F)cccc4F)nnc31)C2(C)C [Example 289, N-(((5R,8S)-3-(2,6-difluorophenyl)-9,9-dimethyl-5,6,7,8-tetrahydro-5,8-methanocinnolin-8-yl)methyl)-N-(2-hydroxyethyl)acetamide]",258 nM
10,CC(=O)OC[C@]12CC[C@H](c3cc(-c4ccccc4F)nnc31)C2(C)C [Example 12],45 nM
11,"CNC(=O)[C@]12CC[C@H](c3cc(-c4ccccc4F)nnc31)C2(C)C [Example 334, (5S,8S)-3-(2-fluorophenyl)-N,9,9-trimethyl-5,6,7,8-tetrahydro-5,8-methanocinnoline-8-carboxamide]",2100 nM
12,"CC(C)C(=O)N[C@@]12CC[C@@H](c3cc(-c4ccccc4F)nnc31)C2(C)C [Example 87, N-[(5R,8R)-3-(2-fluorophenyl)-9,9-dimethyl-6,7-dihydro-5,8-methanocinnolin-8(5H)-yl]-2-methylpropanamide]",5190 nM
13,"Cn1ncnc1[C@@]12CC[C@@H](c3cc(-c4c(F)cccc4F)nnc31)C2(C)C [Example 251, (5R,8R)-3-(2,6-difluorophenyl)-9,9-dimethyl-8-(1-methyl-1H-1,2,4-triazol-5-yl)-5,6,7,8-tetrahydro-5,8-methanocinnoline]",610 nM
14,"CC1(C)[C@H]2CC[C@]1(CN1CCOCC1)c1nnc(-c3c(F)cccc3F)cc12 [Example 56, (5R,8S)-3-(2,6-difluorophenyl)-9,9-dimethyl-8-(morpholin-4-ylmethyl)-5,6,7,8-tetrahydro-5,8-methanocinnoline]",252 nM
15,"CC1(C)[C@H]2CC[C@]1(C(=O)NC1COC1)c1nnc(-c3c(F)cccc3F)cc12 [Example 187, (5R,8R)-3-(2,6-difluorophenyl)-9,9-dimethyl-N-(oxetan-3-yl)-5,6,7,8-tetrahydro-5,8-methanocinnoline-8-carboxamide]",2400 nM
16,"CC1(C)[C@@H]2CC[C@@]1(Cn1cccn1)c1nnc(-c3ccccc3F)cc12 [Example 27, (5S,8R)-3-(2-fluorophenyl)-9,9-dimethyl-8-(1H-pyrazol-1-ylmethyl)-5,6,7,8-tetrahydro-5,8-methanocinnoline]",366 nM
17,"Cn1nc([C@]23CC[C@H](c4cc(-c5c(F)cccc5F)nnc42)C3(C)C)oc1=O [Example 263, 5-((5S,8S)-3-(2,6-difluorophenyl)-9,9-dimethyl-5,6,7,8-tetrahydro-5,8-methanocinnolin-8-yl)-3-methyl-1,3,4-oxadiazol-2(3H)-one]",471 nM
18,"CCN(C[C@@]12CC[C@@H](c3cc(-c4c(F)cccc4F)nnc31)C2(C)C)c1ccccn1 [Example 163, N-(((5R,8S)-3-(2,6-difluorophenyl)-9,9-dimethyl-5,6,7,8-tetrahydro-5,8-methanocinnolin-8-yl)methyl)-N-ethylpyridin-2-amine]",6 nM
19,"CC(C)CNC(=O)[C@]12CC[C@H](c3cc(-c4c(F)cccc4F)nnc31)C2(C)C [Example 209, (5S,8S)-3-(2,6-difluorophenyl)-N-isobutyl-9,9-dimethyl-5,6,7,8-tetrahydro-5,8-methanocinnoline-8-carboxamide]",1550 nM
20,"Cc1ncoc1[C@]12CC[C@H](c3cc(-c4c(F)cccc4F)nnc31)C2(C)C [Example 227, 5-((5S,8S)-3-(2,6-difluorophenyl)-9,9-dimethyl-5,6,7,8-tetrahydro-5,8-methanocinnolin-8-yl)-4-methyloxazole]",139 nM
21,"CCN(C[C@]12CC[C@H](c3cc(-c4c(F)cccc4F)nnc31)C2(C)C)C(=O)CCNC(N)=O [Example 343, N-(((5S,8R)-3-(2,6-difluorophenyl)-9,9-dimethyl-5,6,7,8-tetrahydro-5,8-methanocinnolin-8-yl)methyl)-N-ethyl-3-ureidopropanamide]",32 nM
22,"CON(C)C(=O)[C@]12CC[C@H](c3cc(-c4c(F)cccc4F)nnc31)C2(C)C [Example 55, (5S,8S)-3-(2,6-difluorophenyl)-N-methoxy-N,9,9-trimethyl-6,7-dihydro-5,8-methanocinnoline-8(5H)-carboxamide]",124 nM
23,"CC1(C)[C@H]2CC[C@]1(C(=O)NC1CCCC1)c1nnc(-c3ccccc3F)cc12 [Example 175, (5R,8R)-N-cyclopentyl-3-(2-fluorophenyl)-9,9-dimethyl-5,6,7,8-tetrahydro-5,8-methanocinnoline-8-carboxamide]",1160 nM
24,"Cc1noc([C@]23CC[C@H](c4cc(-c5c(F)cccc5F)nnc42)C3(C)C)n1 [Example 60, (5S,8S)-3-(2,6-difluorophenyl)-9,9-dimethyl-8-(3-methyl-1,2,4-oxadiazol-5-yl)-5,6,7,8-tetrahydro-5,8-methanocinnoline]",415 nM
